Source: ChEMBL document CHEMBL1127670, “Comparative molecular field analysis of the antitumor activity of 9H-thioxanthen-9-one derivatives against pancreatic ductal carcinoma 03” (1994)

Tested on: Mus musculus
Assay: Compound was tested for in vivo growth inhibition of pancreatic ductal adenocarcinoma (Panc 03) in mice, expressed as antitumor efficacy; range is 0-10
Type: functional

**Q.** `CNCc1ccc(NCCN(C)C)c2c(=O)c3ccccc3sc12` was tested. Which T/C did it give?
**A.** 10 score (0-10)

**Q.** For `CCN(CC)CCNc1ccc(CN(C)S(=O)(=O)CC)c2sc3ccccc3c(=O)c12`, which T/C is on record?
**A.** 0 score (0-10)

**Q.** Which T/C does the source give for `CNCc1ccc(NCCCN(C)C)c2c(=O)c3ccccc3sc12` here?
**A.** 10 score (0-10)

**Q.** For `CCN(CC)CCNc1ccc(CNS(=O)(=O)c2ccccc2)c2sc3ccccc3c(=O)c12`, which T/C is on record?
**A.** 10 score (0-10)

**Q.** For `CCN(CC)CCNc1ccc(CSC)c2sc3ccccc3c(=O)c12`, which T/C is on record?
**A.** 10 score (0-10)

Tested on: Mus musculus
Assay: Compound was tested for in vivo growth inhibition of pancreatic ductal adenocarcinoma (Panc 03) in mice, expressed as antitumor efficacy; range is 11-25
Type: functional

**Q.** How did the T/C turn out when `Cc1ccc(NCCN(C)C)c2c(=O)c3ccccc3sc12` was run?
**A.** 25%

**Q.** Which T/C does the source give for `CCN(CC)CCNc1ccc(CNC(=O)c2ccccc2)c2sc3ccccc3c(=O)c12` here?
**A.** 25%

**Q.** For `CCN(CC)CCNc1ccc(CO)c2sc3ccccc3c(=O)c12` [HYCANTHONE], which T/C is on record?
**A.** 25%

Tested on: Mus musculus
Assay: Compound was tested for in vivo growth inhibition of pancreatic ductal adenocarcinoma (Panc 03) in mice, expressed as antitumor efficacy; range is 26-42
Type: functional

**Q.** For `CCN(CC)CCNc1ccc(CN(C)C)c2sc3ccccc3c(=O)c12`, which T/C is on record?
**A.** 42%

**Q.** How did the T/C turn out when `CCN(CC)CCNc1ccc(COC)c2sc3ccccc3c(=O)c12` was run?
**A.** 26%

**Q.** Which T/C does the source give for `CCN(CC)CCNc1ccc(COC(=O)C(C)(C)C)c2sc3ccccc3c(=O)c12` here?
**A.** 42%

Tested on: Mus musculus
Assay: The compound was tested for in vivo growth inhibition of pancreatic ductal adenocarcinoma (Panc 03) in mice.
Type: functional

**Q.** With `CCN(CC)CCNc1ccc(CNS(=O)(=O)c2ccc(N)cc2)c2sc3ccccc3c(=O)c12` as the molecule, how does the T/C read?
**A.** 3%

**Q.** Which T/C does the source give for `CCN(CC)CCNc1ccc(/C=N/c2ccccc2)c2sc3ccccc3c(=O)c12` here?
**A.** 2%

**Q.** With `CCCCCCC(=O)OCc1ccc(NCCN(CC)CC)c2c(=O)c3ccccc3sc12` as the molecule, how does the T/C read?
**A.** 2%

Tested on: Mus musculus
Assay: Compound was tested for in vivo growth inhibition of pancreatic ductal adenocarcinoma (Panc 03) in mice, expressed as antitumor efficacy
Type: functional

**Q.** Which T/C does the source give for `CCN(CC)CCNc1ccc(CN(CC)S(C)(=O)=O)c2sc3ccccc3c(=O)c12` here?
**A.** 0%

**Q.** For `CN(C)CCNc1ccc(CNS(C)(=O)=O)c2sc3ccccc3c(=O)c12`, which T/C is on record?
**A.** 0%

**Q.** With `CCN(CC)CCNc1ccc(C(N)=O)c2sc3ccccc3c(=O)c12` as the molecule, how does the T/C read?
**A.** 0%

**Q.** How did the T/C turn out when `CCN(CC)CCNc1ccc(CNC(C)=O)c2sc3ccccc3c(=O)c12` was run?
**A.** 0%

**Q.** For `CCN(CC)CCNc1ccc(CN(C)S(C)(=O)=O)c2sc3ccccc3c(=O)c12`, which T/C is on record?
**A.** 0%

**Q.** How did the T/C turn out when `CCN(C=O)Cc1ccc(NCCN(CC)CC)c2c(=O)c3ccccc3sc12` was run?
**A.** 0%

**Q.** How did the T/C turn out when `CCNCc1ccc(NCCN(CC)CC)c2c(=O)c3ccccc3sc12` was run?
**A.** 0%

**Q.** `CN(C)CCNc1ccc(CN)c2sc3ccccc3c(=O)c12` was tested. Which T/C did it give?
**A.** 0%
